Earlier results in patent publication US20150157610A1, “PHARMACEUTICAL COMPOSITION FOR TREATING INFLAMMATORY DISEASE” (OSAKA UNIVERSITY, priority 2012, published 2015).

System: fulminant myocarditis
Details: experimental, Non Patent Literature 2 and 3

With `CCCCCCCCc1ccc(CCC(N)(CO)CO)cc1` [FTY720] as the compound, how does the “efficacy against fulminant myocarditis” value read?
The value was “experimentally effective”.
